Experimental data as given in patent US20070258972A1, “Combination of a Histone Deacetylase Inhibitor with a Death Receptor Ligand” (priority 2003, published 2007).

How the values were obtained:
[1] = tested on: SKW 6.4 and Jurkat leukemia cells; test: Multi-probe RNase protection assay of mRNA levels; assay type: cell-based, human
Procedure: A RiboQuant Multi-Probe RNase Protection Assay System was used according to the manufacturer's instructions (BD/PharMingen, San Diego, Calif.). A probe set, hAPO-3d (FLICE, FAS, DR5, DR4 and TRAIL) was used for T7 RNA-polymerase directed synthesis of [α-32P] UTP-labeled antisense RNA probes. The probe set contains the DNA templates, including glyceraldehyde-3-phosphate dehydrogenase (GAPDH) used as internal control. The probes (1×10^6 cpm/reaction) are hybridized with 20 μg of RNA isolated from the SKW 6.4 and Jurkat leukemia cells, following treatment with 100 nM LAQ824 at different time points using the RNeasy Mini kit (Qiagen, Valencia, Calif.). After overnight hybridization, samples are digested with RNase to remove single-stranded (non-hybridized) RNA. The remaining probes are resolved on 5% de-naturing polyacrylamide gel and analyzed by autoradiography.

[2] = tested on: Apo-2L/TRAIL-induced DISC; test: Apo-2L/TRAIL-induced DISC analysis; assay type: cell-based, human; details: LAQ824 100 nM for 24 hours followed by Apo-2L/TRAIL (100 ng/mL for two hours) versus Apo-2L/TRAIL; not c-FLIPL
Procedure: Untreated or LAQ824 treated SKW 6.4 or Jurkat cells are suspended at a final concentration of 10^6 cells/mL in a pre-warmed, complete RPMI media. Cells are treated with 100 ng/mL Apo-2L/TRAIL for 2 hours at 37° C, followed by washing with 1 mL of ice-cold PBS. Cells are lysed in 500 μL lysis buffer (25 mM Tris-HCl, pH 7.2, 150 mM NaCl, 25 mM NaF, 1 mM benzamidine, 1.0% Triton X-100, 2 μg/mL aprotinin 2 μg/mL leupeptin, 1 μg/mL pepstin-A and 0.1 μg/mL PMSF) for 30 minutes on ice. In the untreated controls, 100 ng/mL Apo-2L/TRAIL was added after lysis of cells, to immunoprecipitate non-stimulated Apo-2L/TRAIL receptors. One-hundred micrograms (100 μg) of the lysates was incubated at 4° C. for 2 hours with 1 μg each of anti-Apo-2L/TRAIL receptor 1 & 2 (DR4 and DR5) antibodies, provided by Immunex Corp., Seattle Wash. The immune-complexes are incubated overnight at 4° C. with 20 μL of protein A-agarose beads (Roche, Indianapolis, Ind.). The beads are recovered by centrifugation and washed twice with the lysis buffer. The pellet was re-suspended in the sample buffer and analyzed by SDS-PAGE and immunoblot analysis using antibodies against caspase-8, DR5, DR4 and FADD.

[3] = 8 hours or 16 hours, densitometry, GAPDH loading control

## O=C(/C=C/c1ccc(CN(CCO)CCc2c[nH]c3ccccc23)cc1)NO [LAQ824, N-hydroxy-3-[4-[[(2-hydroxyethyl)[2-(1H-indol-3-yl)ethyl]-amino]methyl]phenyl]-2E-2-propenamide]
[1]
  mRNA levels of Apo-2L/TRAIL and caspase-8 (FLICE): only minimally affected
[1]; [3]
  mRNA expression of DR5, increase: 2.4 fold
  mRNA expression of FAS, increase: 1.5 fold
[1]; only in SKW 6.4 cells
  DR4 mRNA levels, increase: 2.2 fold
[2]
  recruitment of FADD and caspase-8 into the immunoprecipitates of DR4 & DR5: more recruitment
